Laboratory results published in patent US7109215B2, “Compounds possessing neuronal activity” (Vertex Pharmaceuticals Incorporated, priority 1997, dated 2006).
Marks after values point to notes of the source that are not given here.

Legend:
HL60/Vinc cells = experiment: MDR sensitization (reversal) assay, doxorubicin, XTT viability; assay type: cell-based, human; conditions: IC50 doxorubicin alone / IC50 doxorubicin plus compound
Experimental: We carried out multidrug resistance reversal (MDR) assays using L1210vMDRC.06 or HL60/Vinc cell lines. L1210vMDRC.06 are L1210 mouse leukemia cells transduced with the pHaMDR1/A retrovirus carrying a MDR1 cDNA, as described by Pastan et al., Proc. Natl. Acad. Sci. USA, 85, pp. 4486–4490 (1988). The L1210vMDRC.06 multidrug resistant line is a cell line that has been drug-selected by culturing transfected cells in 0.06 μg/ml colchicine. The HL60/Vinc human promyleocytic leukemia cell line is a multidrug resistant cell line derived from HL60 drug-sensitive parental cells by selection in increasing concentrations of vincristine.
Assays using HL60/Vinc cells were performed by plating cells in 96 well microtiter plates at a concentration of 4×10^4 cells/well. The cells were then exposed to various concentrations of doxorubicin (9 nM to 6.7 μM) in the presence or absence of various compounds of this invention at various concentrations (0.5, 1.0, 2.5, 5.0 or 10 μM) as described in U. Germann et al., Anti-Cancer Drugs, 8, pp. 141–155 (1997). After culturing the cells for 3 days, their viability was quantitated using the XTT dye method to assess mitochondrial function (Roehm et al., supra). Results were expressed as a ratio of the IC50 for doxorubicin alone to the IC50 for doxorubicin plus compound. In all assays the intrinsic antiproliferative or cytotoxicity activity of the MDR inhibitors was also determined for HL60/Vinc cells.

[1] = tested on: pheochromocytoma PC12 cells; experiment: Neurite outgrowth quantitation in PC12 cell system; assay type: cell-based, rat; conditions: 1–5 ng/ml NGF, 72 hours
Experimental: In order to directly determine the neurotrophic activity of compounds described in this invention, the neurite outgrowth assay was carried out with pheochromocytoma PC12 cells as described by Lyons et al. (1994).
PC12 cells were maintained at 37° C. and 5% CO2 in Dulbecco's modified Eagle's medium (DMEM) supplemented with 10% heat-inactivated horse serum, 5% heat-inactivated fetal bovine serum (FBS), and 1% glutamate.
The cells were then plated at […] in 96 well plates coated with […] rat tail collagen and allowed to attach overnight. The medium was then replaced with DMEM, 2% heat-inactivated horse serum, 1% glutamate, 1–5 ng/ml of NGF (Sigma) and varying concentrations of the compounds of this invention (0.01 nM–10000 nM). The background control culture was administered with […] of NGF alone without compound. Positive control cultures were administered with high concentration of NGF (50 ng/ml). The cells were then incubated at 37° C. at 5% CO2 for 72 hours, fixed with 3% formaldehyde and nerve outgrowth was determined visually on a scale of 0 to 4.

FKBP = FKBP (Homo sapiens, UniProt P62942); experiment: Rotamase inhibition assay (chymotrypsin-coupled PPIase assay); assay type: biochemical; conditions: 15 nM FKBP, 30 μM Suc-Ala-Leu-Pro-Phe-pNA, 15° C.
Experimental: Inhibition of FKBP enzyme activity was determined in the PPIase assay described in S. T. Park et al., J. Biol. Chem., 267, pp. 3316–24 (1992), the disclosure of which is herein incorporated by reference. This is a chymotrypsin-coupled assay in which FKBP catalyzes the cis to trans isomerization of the Leu-Pro bond in the peptide substrate Suc-Ala-Leu-Pro-Phe-pNA. The trans form, but not the cis form, is cleavable by chymotrypsin. The release Phe-pNA was monitored by absorbance at 400 nm. Chymotrypsyn cleavage is very rapid and therefore cis-to-trans isomerization is rate-limiting.
Each reaction mix consisted of 0.1 M Tris buffer, pH 7.8, 15 nM FKBP, 30 μM substrate and 0.5 nM to 10 μM of compound to be tested diluted in Me2SO. The mixture was incubated at 15° C. for 5 minutes and then reaction was initiated by addition of chymotrypsin (100 μg/ml final concentration) and followed spectrophotometrically for 5 minutes. Total reaction volume was 1 ml.

Chain of FKBP (P62942 whole entry): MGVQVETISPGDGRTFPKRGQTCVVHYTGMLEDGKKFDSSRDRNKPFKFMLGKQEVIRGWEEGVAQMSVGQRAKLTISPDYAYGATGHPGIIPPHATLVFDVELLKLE

Ki (FKBP) [µM] | SMILES | MDR Ratio (HL60/Vinc cells; compound 2.5 μM) | Neurite outgrowth, visual scale of 0 to 4 ([1]; compound 10 nM) | Neurite outgrowth, visual scale of 0 to 4 ([1]; compound 100 nM) | Neurite outgrowth, visual scale of 0 to 4 ([1]; compound 1000 nM) | Neurite outgrowth, visual scale of 0 to 4 ([1]; compound 0.01 nM) | Neurite outgrowth, visual scale of 0 to 4 ([1]; compound 0.1 nM) | Neurite outgrowth, visual scale of 0 to 4 ([1]; compound 1 nM) | Neurite outgrowth, visual scale of 0 to 4 ([1]; compound 10000 nM) | MDR Ratio (HL60/Vinc cells; compound 10 μM)
> 25 | CN(C(=O)[C@H](Cc1ccccc1)N(C)S(=O)(=O)c1ccc(N)cc1)C(CCCc1cccnc1)CCCc1cccnc1 [Compound 4, (S)-(N-methyl)-2-(methyl-(4-amino-benzenesulfanilamido))-3-phenyl-N-(4-(pyridin-3-yl)-1-(3-(pyridin-3-yl)propyl)butyl) propionamide] | 6.2 | 3* | 3* | 4* |  |  |  |  | 
 | CN(C(=O)[C@H](Cc1ccccc1)N(C)S(=O)(=O)Cc1ccccc1)C(CCCc1cccnc1)CCCc1cccnc1 [Compound 12] | 22.6 | 3* | 3* | 4* |  |  |  |  | 
 | CN(C(=O)[C@H](Cc1ccccc1)N(C)S(=O)(=O)CS(C)(=O)=O)C(CCCc1cccnc1)CCCc1cccnc1 [Compound 11] | 1.7 | 1* | 3* | 3* |  |  |  |  | 
> 25 | CN(CCCc1cccnc1)C(=O)C1CCCCN1 (stereo not shown) [Compound 110] | 1.1 |  | 3* | 0* |  |  |  |  | 
> 50 | CN(C(=O)[C@H](Cc1ccccc1)N(C)S(=O)(=O)c1ccccc1[N+](=O)[O-])C(CCCc1cccnc1)CCCc1cccnc1 [Compound 8] | 28.5 | 4* | 2* | 3* |  |  |  |  | 
> 50 | O=C(NCc1ccncc1)C1CCCCN1 (stereo not shown) [Compound 104] | 0.6 | 2* | 4* | 3* | 3* | 3* | 2* | 4* | 
> 25 | CNC(Cc1ccccc1)C(=O)N(C)CCc1ccccn1 (stereo not shown) [Compound 107] | 0.9 |  | 3* | 0* |  |  |  |  | 
> 50 | CN(CCc1ccccn1)C(=O)C(Cc1ccccc1)N(C)S(=O)(=O)c1ccc(N)cc1 (stereo in doubt) [Compound 2, (S)-(N-methyl)-2-(methyl-(4-amino-benzenesulfanilamido))-3-phenyl-N-(2-(pyridin-2yl)ethyl) propionamide] | 0.7 | 3*** | 3*** | 4*** |  |  |  |  | 
> 50 | CN1CCCCC1C(=O)OC(CCCc1ccncc1)CCCc1cccnc1 (stereo not shown) [Compound 111] | 1.2 | 2** | 4** | 4** | 4* | 4* | 3* | 4* | 
 | CN(C)c1cccc2c(S(=O)(=O)N(C)[C@@H](Cc3ccccc3)C(=O)N(C)C(CCCc3cccnc3)CCCc3cccnc3)cccc12 [Compound 7] |  | 2* | 3* | 3* |  |  |  |  | 21.9
 | CC(=O)Nc1ccc(S(=O)(=O)N(C)[C@@H](Cc2ccccc2)C(=O)N(C)C(CCCc2cccnc2)CCCc2cccnc2)cc1 [Compound 15] | 2.4 | 3* | 3* | 3* |  |  |  |  | 
 | COc1ccc(S(=O)(=O)N(C)[C@@H](Cc2ccccc2)C(=O)N(C)C(CCCc2cccnc2)CCCc2cccnc2)cc1OC [Compound 17] | 14.6 | 3* | 3* | 4* |  |  |  |  | 
 | CN(C(=O)[C@H](Cc1ccccc1)N(C)S(=O)(=O)c1ccc(F)cc1)C(CCCc1cccnc1)CCCc1cccnc1 [Compound 14] | 19.9 | 3* | 2* | 4* |  |  |  |  | 
> 50 | O=C(OC(CCCc1ccncc1)CCCc1cccnc1)C1CCCCN1Cc1ccncc1 (stereo not shown) [Compound 113] | 2.3 | 3* | 4* | 4* |  |  |  |  | 
> 50 | O=C(OCc1ccccc1)C1CCCCN1 (stereo not shown) [Compound 101] |  |  |  |  |  |  |  |  | 
 | CN(C)c1ccc(/N=N\c2ccc(S(=O)(=O)N(C)[C@@H](Cc3ccccc3)C(=O)N(C)C(CCCc3cccnc3)CCCc3cccnc3)cc2)cc1 [Compound 6] |  | 4* | 2* | 3* |  |  |  |  | 17.7
 | CNC(Cc1ccccc1)C(=O)N(C)C(CCCc1cccnc1)CCCc1cccnc1 (stereo not shown) [Compound 109] |  | 3* | 2* | 4* | 3* | 4* | 4* | 3* | 
 | O=C(OC(CCCc1cccnc1)CCCc1cccnc1)C1CCCCN1 (stereo not shown) [Compound 102] | 1.2 | 4** | 2** | 3** | 3* | 3* | 4* | 4* | 
 | CN(C(=O)[C@H](Cc1ccccc1)N(C)S(=O)(=O)c1ccc(C#N)cc1)C(CCCc1cccnc1)CCCc1cccnc1 [Compound 16] | 19.9 | 3* | 4* | 3* |  |  |  |  | 
 | CN(C(=O)[C@H](Cc1ccccc1)N(C)S(=O)(=O)/C=C/c1ccccc1)C(CCCc1cccnc1)CCCc1cccnc1 [Compound 13] | 19.3 | 3* | 3* | 4* |  |  |  |  | 
 | CN(CCc1ccccn1)C(=O)[C@@H]1CCCCN1S(=O)(=O)c1ccc(N)cc1 [Compound 1, N-(4-aminobenzenesulfonamido)-(S)-piperidine-2-carboxylic acid-2-((N-methyl)-2-pyridylethyl) amide] | 0.6 | 3*** | 1*** | 3*** |  |  |  |  | 
 | CN(C(=O)[C@H](Cc1ccccc1)N(C)S(=O)(=O)c1ccc(Nc2ccc([N+](=O)[O-])cc2[N+](=O)[O-])cc1)C(CCCc1cccnc1)CCCc1cccnc1 [Compound 5] |  | 2* | 3* | 3* |  |  |  |  | 30.4
